These results are taken from US6841684B2, “Imidiazoles having reduced side effects” (Allergan, Inc., priority 1997, dated 2005).

Each structure is given as a SMILES string. Counter-ions that a name gives are not always drawn.

The target of the experiment is T1, rat α2B (RNG gene) receptor (Rattus norvegicus, UniProt P19328).
T1 construct: expressed in transfected cells; host or cells: NIH-3T3 cells, calcium phosphate cotransfection
T1 sequence (P19328 1-453): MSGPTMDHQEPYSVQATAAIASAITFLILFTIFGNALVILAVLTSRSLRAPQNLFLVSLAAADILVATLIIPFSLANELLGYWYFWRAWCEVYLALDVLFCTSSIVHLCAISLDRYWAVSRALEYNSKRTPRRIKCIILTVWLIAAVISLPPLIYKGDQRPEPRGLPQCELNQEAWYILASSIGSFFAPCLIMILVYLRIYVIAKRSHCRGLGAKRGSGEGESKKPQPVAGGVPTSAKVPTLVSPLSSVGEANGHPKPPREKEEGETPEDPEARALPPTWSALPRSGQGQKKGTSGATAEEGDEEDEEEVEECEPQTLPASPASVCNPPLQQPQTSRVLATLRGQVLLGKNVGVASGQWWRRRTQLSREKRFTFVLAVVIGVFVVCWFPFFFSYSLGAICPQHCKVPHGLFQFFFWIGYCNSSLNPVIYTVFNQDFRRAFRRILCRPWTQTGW
The experiment can be described thus: RSAT (Receptor Selection and Amplification Technology) assay, alpha 2B. Format: cell-based. Particulars: ratio of maximal effect to that of standard full agonist oxymetazoline. From the text:
This preferential activity can be determined in a variety of functional assays such as Cyclic AMP Production, Shimizu et al, J. Neurochem. […] In the study below, the RSAT assay on cells that have been transiently transfected with the human α2A (c10 gene), rat α2B (RNG gene) and human α2C (c4 gene) receptors was used.
The assay measures a receptor-mediated loss of contact inhibition that results in selective proliferation of receptor-containing cells in a mixed population of confluent cells. The increase in cell number is assessed with an appropriate transfected marker gene such as b-galactosidase, the activity of which can be easily measured in a 96-well format. Receptors that activate the G protein, Gq, elicit this response. Alpha2 receptors, which normally couple to Gi, activate the RSAT response when coexpressed with a hybrid Gq protein that has a Gi receptor recognition domain, called Gq/i5^2.
NIH-3T3 cells are plated at a density of 2×10^6 cells in 15 cm dishes and maintained in Dulbecco's modified Eagle's medium supplemented with 10% calf serum. One day later, cells are cotransfected by calcium phosphate precipitation with mammalian expression plasmids encoding p-SV-b-galactosidase (5-10 mg), receptor (1-2 mg) and G protein (1-2 mg). 40 mg salmon sperm DNA may also be included in the transfection mixture. Fresh media is added on the following day and 1-2 days later, cells are harvested and frozen in 50 assay aliquots. Cells are thawed and 100 ml added to […] aliquots of various concentrations of drugs in triplicate in 96-well dishes. Incubations continue 72-96 hr at 37°. After washing with phosphate-buffered saline, b-galactosidase enzyme activity is determined by adding 200 ml of the chromogenic substrate (consisting of 3.5 mM o-nitrophenyl-b-D-galactopyranoside and 0.5% nonidet P-40 in phosphate buffered saline), incubating overnight at 30° and measuring optical density at 420 nm. The absorbence is a measure of enzyme activity, which depends on cell number and reflects a receptor-mediated cell proliferation. The EC50 and maximal effect of each drug at each alpha2 receptor is determined. The efficacy or intrinsic activity is calculated as a ratio of the maximal effect of the drug to the maximal effect of a standard full agonist for each receptor subtype.
Regarding `CC1=C(C)CC(Cc2c[nH]cn2)CC1` (stereo not drawn) [Example W-1, 4(5)-(3,4-Dimethyl-cyclohex-3-enylmethyl)-1H-imidazole, but-2-enedioic acid salt], the “Intrinsic Activity Relative to Oxymetazoline, Alpha 2B” value was found to be 0.55.
In the case of `O=C1/C(=C/c2c[nH]cn2)CCCc2ccccc21` [Example B-11b, 6-(1H-imidazol-4(5)-ylmethylene)-6,7,8,9-tetrahydrobenzocyclohepten-5-one] it was 0.3.
In the case of `O=C1c2ccccc2CC1Cc1c[nH]cn1` (stereo not drawn) [Example B-7b, 2-(1H-imidazol-4(5)-ylmethyl)indan-1-one] it was 0.3.
For `O=C1c2cccnc2CCC1Cc1c[nH]cn1` (stereo not drawn) [Example Q-3, 6-(1H-imidazol-4(5)-ylmethyl)-7,8-dihydro-6H-quinolin-5-one] the value was 0.9; for `O=C1/C(=C/c2c[nH]cn2)CCc2ncccc21` [Example Q-2, (E)-6-(1H-imidazol-4(5)-ylmethylene)-7,8-dihydro-6H-quinolin-5-one], 0.87; for `O=C1c2ccccc2CCC1Cc1c[nH]cn1` (stereo not drawn) [Example B-3a], 0.8.
Consider `C=CC1=CCC(Cc2c[nH]cn2)CC1` (stereo not drawn) [Example 1-A], for which the “Intrinsic Activity Relative to Oxymetazoline, Alpha 2B” value worked out at 0.7.
For `CC1=CC(Cc2c[nH]cn2)CC1` (stereo not drawn) [Example T-3, 4(5)-(3-methylcyclopent-2-enylmethyl)-1H-imidazole, but-2-enedioic acid salt] the value was 1.08.
For `CC1CC(Cc2c[nH]cn2)C(=O)c2ccccc21` (stereo not drawn) [Example B-4b, 2-(1H-imidazol-4(5)-ylmethyl)-4-methyl-3,4-dihydro-2H-naphthalen-1-one] the value was 0.7.
With `O=C1c2ccncc2CCC1Cc1c[nH]cn1` (stereo not drawn) [Example R-2, 6-(1H-imidazol-4(5)-ylmethyl)-7,8-dihydro-6H-isoquinolin-5-one, dihydrochloride], the “Intrinsic Activity Relative to Oxymetazoline, Alpha 2B” value stood at 0.6.
`CCC1=C(C)CCC(Cc2c[nH]cn2)C1` (stereo not drawn) [Example 1D]: the “Intrinsic Activity Relative to Oxymetazoline, Alpha 2B” value turned out to be 0.6.
For `O=C1C(Cc2c[nH]cn2)CCC2NCCCC12` (stereo not drawn) [Example Q-5, 6-(1H-imidazol-4(5)-yl-methyl)-octahydroquinolin-5-one] the value was 1.0; for `COCC1=CCCC(Cc2c[nH]cn2)C1` (stereo not drawn) [Example 1E], 1; for `CC1C=CC(Cc2c[nH]cn2)CC1` (stereo not drawn) [Example U-2, 4(5)-(4-methyl-cyclohex-2-enylmethyl)-1H-imidazole, but-2-enedioic acid salt], 0.6.
In the case of `CC1=C(Cc2c[nH]cn2)COc2ccccc21` [Example 1G] it was 0.6; in that of `CCc1ccc(Cc2c[nH]cn2)o1` [Example C-11, 4(5)-(5-ethylfuran-2-ylmethyl)-1H-imidazole], 0.5.
In the case of `CC1CC(Cc2c[nH]cn2)Cc2ccccc21` (stereo not drawn) [Example B-4a, 4(5)-(4-methyl-1,2,3,4-tetrahydronaphthalen-2-ylmethyl)-1H-imidazole] it was 0.75; in that of `c1cc2c(cn1)CCC(Cc1c[nH]cn1)C2` (stereo not drawn) [Example R-3, 6-(1H-imidazol-4(5)-ylmethyl)-5,6,7,8-tetrahydro-isoquinoline, fumarate], 0.6.
Take `c1cc2c(cn1)CC(Cc1c[nH]cn1)CC2` (stereo not drawn) [Example P-2, 7-(1H-imidazol-4(5)-ylmethyl)-5,6,7,8-tetrahydro-isoquinoline, fumarate]: the “Intrinsic Activity Relative to Oxymetazoline, Alpha 2B” value was found to be 0.4.
On to `C1=C(C2CC2)CCCC1Cc1c[nH]cn1` (stereo not drawn) [Example 1L], for which the “Intrinsic Activity Relative to Oxymetazoline, Alpha 2B” value turned out to be 0.7.
For `O=C1CCCCC1Cc1c[nH]cn1` (stereo not drawn) [V, 2-(1H-Imidazole-4(5)-ylmethyl)-cyclohexanone, but-2-enedioic acid salt] the value was 0.4; for `c1nc(Cc2ccoc2)c[nH]1` [Example C-6, 4(5)-furan-3-ylmethyl-1H-imidazole], 0.67; for `c1ccc2oc(Cc3c[nH]cn3)cc2c1` [Example C-10, 4(5)-benzofuran-2-ylmethyl-1H-imidazole], 0.48.
For `c1nc(Cc2cc3c(s2)CCCC3)c[nH]1` [Example K-1, 4(5)-(4,5,6,7-tetrahydrobenzo[b]thiophen-2-ylmethyl)-1H-imidazole] the value was 0.53; for `CC1=CCCCC1Cc1cnc[nH]1` (stereo not drawn) [Example 1I], 0.8.
In the case of `c1ccc2c(c1)OCCC2Cc1cnc[nH]1` (stereo not drawn) [Example 1C] it was 0.8.
On to `Cc1c(N=C2NCCN2)ccc2c1NC(=O)CO2` [F, 6-(imidazolidin-2-ylideneamino)-5-methyl-4H-benzo[1,4]oxazin-3-one], for which the “Intrinsic Activity Relative to Oxymetazoline, Alpha 2B” value is on record as 0.9.
For `CC1=CCCCC1Cc1c[nH]cn1` (stereo not drawn) [Example 1M] the value was 0.6.
`Cc1ccccc1C1C2CCC(C2)C1/N=C1/NCCO1` [Example D-2, oxazolidin-2-ylidene-(3-o-tolylbicyclo[2.2.1]hept-2-yl) amine]: the “Intrinsic Activity Relative to Oxymetazoline, Alpha 2B” value stood at 0.75.
For `CCC1=CCC(Cc2c[nH]cn2)CC1` (stereo not drawn) [Example X-2, 4(5)-(4-Ethyl-cyclohex-3-enylmethyl)-1H-imidazole, but-2-enedioic acid salt] the value was 0.56.
For `CC1=CC(Cc2c[nH]cn2)CC(C)(C)C1` (stereo not drawn) [Example T-2, 4(5)-(3,5,5-trimethyl-cyclohex-2-enylmethyl)-1H-imidazole, but-2-endioic acid salt] the value was 0.7.
For `CC(c1c[nH]cn1)c1ccco1` (stereo not drawn) [L, 4(5)-(1-furan-2-ylethyl)-1H-imidazole] the value was 0.9.
Take `O=C1/C(=C/c2c[nH]cn2)Cc2ccccc21` [Example B-7a, 2-(1-H-imidazol-4(5)-ylmethylene)indan-1-one]: the “Intrinsic Activity Relative to Oxymetazoline, Alpha 2B” value was 0.3.
As for `c1ccc2c(c1)SCCC2Cc1cnc[nH]1` (stereo not drawn) [Example 1-B], the “Intrinsic Activity Relative to Oxymetazoline, Alpha 2B” value worked out at 0.7.
In the case of `c1ccc2c(c1)CC(Cc1c[nH]cn1)C2` [Example B-7c, 4(5)-indan-2-ylmethyl-1H-imidazole] it was 0.9; in that of `C1=C(Cc2c[nH]cn2)CSc2ccccc21` [Example 1F], 0.8; in that of `O=C1/C(=C\c2c[nH]cn2)CCc2ncccc21` [Example Q-1, (Z)-6-(1H-imidazol-4(5)-ylmethylene)-7,8-dihydro-6H-quinolin-5-one], 0.75.
In the case of `C1=NC(CC2CCc3ccccc3C2)CN1` (stereo not drawn) [I, 4(5)-(1,2,3,4-tetrahydronaphthalen-2-ylmethyl)-4,5-dihydro-1H-imidazole, methane sulfonic acid salt] it was 0.5; in that of `CCC1=CC(Cc2c[nH]cn2)CC1` (stereo not drawn) [Example 1Q], 0.75; in that of `CCCCCC1=CCC(Cc2c[nH]cn2)CC1` (stereo not drawn) [Example X-3, 4(5)-(4-Pentyl-cyclohex-3-enylmethyl)-1H-imidazole, but-2-enedioic acid salt], 0.87.
As for `c1nc(CC2CCC3=C(CCCC3)C2)c[nH]1` (stereo not drawn) [Example N-3, 4(5)-(1,2,3,4,5,6,7,8-octahydronaphthalen-2-ylmethyl)-1H-imidazole, fumarate], the “Intrinsic Activity Relative to Oxymetazoline, Alpha 2B” value stood at 0.75.
In the case of `Cc1csc(Cc2c[nH]cn2)c1.Cl` [Example C-14, 4(5)-(4-methylthiophen-2-ylmethyl)-1H-imidazole, hydrochloride salt] it was 0.7.
